Earlier results as cited in patent US20060083768A1, “Method of thickening a coating using a drug” (ATRIUM MEDICAL CORPORATION, priority 2004, published 2006).

System: Porcine Coronary Model
Settings: stents coated with agent solubilized in eicosapentaenoic acid oil vs eicosapentaenoic acid oil coated stents

Structure (SMILES): C=C1[C@@H](C)[C@H]2[C@H](Cc3ccccc3)NC(=O)[C@]23[C@H](OC(C)=O)/C=C/[C@@](C)(O)C(=O)[C@@H](C)C/C=C/[C@H]3[C@@H]1O [cytochalasin D]
- less area stenosis compared to the control group: 38%
- less intimal hyperplasia compared to the control group: 39%
